From PMC8039944, “Characterization of drug-induced human mitochondrial ADP/ATP carrier inhibition” (Theranostics, 2021)
One block for each molecule: values may come before it.

Assays:
[1] = biological target: T1, human mitochondrial ADP/ATP carrier isoform 1 (hAAC1) (Homo sapiens, UniProt P12235); assay: […]-ATP uptake in proteoliposomes, dose-response; type: biochemical; set-up: gene SLC25A4; hAAC1Δ1-10, residues 11-298
T1 sequence (P12235 11-298): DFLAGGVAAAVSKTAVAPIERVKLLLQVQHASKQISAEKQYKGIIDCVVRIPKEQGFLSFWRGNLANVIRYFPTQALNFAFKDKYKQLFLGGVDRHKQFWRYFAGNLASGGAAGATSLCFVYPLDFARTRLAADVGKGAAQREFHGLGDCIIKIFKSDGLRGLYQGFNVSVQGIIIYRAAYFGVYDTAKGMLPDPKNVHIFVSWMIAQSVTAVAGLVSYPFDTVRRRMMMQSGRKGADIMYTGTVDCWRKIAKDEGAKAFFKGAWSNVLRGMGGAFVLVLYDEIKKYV

[2] = biological target: T1, human mitochondrial ADP/ATP carrier isoform 1 (hAAC1); set-up: gene SLC25A4
[3] = biological target: T1, human mitochondrial ADP/ATP carrier isoform 1 (hAAC1); assay: […]-ATP uptake in proteoliposomes, inhibition at […]; type: biochemical; set-up: gene SLC25A4; hAAC1Δ1-10, residues 11-298; conditions: read-out: % inhibition at 100 μM
[4] = biological target: T1, human mitochondrial ADP/ATP carrier isoform 1 (hAAC1); assay: […]-ATP uptake in proteoliposomes, dose-response; CPM thermal shift (+[…] °C at […]); type: biochemical; set-up: gene SLC25A4; hAAC1Δ1-10, residues 11-298

SMILES: O=C(O)C[C@@H]1C(=O)O[C@H]2[C@H](OC(=O)c3cc(O)c(O)c(O)c3)[C@@H](OC(=O)c3cc(O)c(O)c4c3[C@H]1[C@H](O)C(=O)O4)[C@H](OC(=O)c1cc(O)c(O)c(O)c1)O[C@@H]2COC(=O)c1cc(O)c(O)c(O)c1 [chebulinic acid]
- IC50 [1]: 6.5 µM

SMILES: Nc1ncnc2c1ncn2[C@@H]1O[C@H](COP(=O)(O)OP(=O)(O)OP(=O)(O)O)[C@@H](O)[C@H]1O [ATP]
- Km [2]: 3.2 µM

SMILES: CC1=C(/C=C/C(C)=C/C=C/C(C)=C/C(=O)O)C(C)(C)CCC1 [tretinoin]
- inhibition at 100 µM [3]: 59%

Further lines, results first:

- IC50 ([1]; read-out: IC50): 20 µM
SMILES: O=C(O)c1ccc2cc(-c3ccc(O)c(C45CC6CC(CC(C6)C4)C5)c3)ccc2c1 [CD-437]

- inhibition at 100 µM [3]: 77%
SMILES: O=C1c2c(O)cccc2Cc2cccc(O)c21 [anthralin]

- IC50 [4]: 2.4 µM
SMILES: Cc1ccc(C(=O)Nc2ccc(S(=O)(=O)O)c3cc(S(=O)(=O)O)cc(S(=O)(=O)O)c23)cc1NC(=O)c1cccc(NC(=O)Nc2cccc(C(=O)Nc3cc(C(=O)Nc4ccc(S(=O)(=O)O)c5cc(S(=O)(=O)O)cc(S(=O)(=O)O)c45)ccc3C)c2)c1 [suramin]
